Laboratory results taken from article PMC7023466, “Novel N,N′-Disubstituted Acylselenoureas as Potential Antioxidant and Cytotoxic Agents” (Antioxidants, 2020).
Where two headings read alike, the source gives them in different places.

What was measured:
[1] = tested on: HTB-54 cells; assay: MTT cell viability assay, HTB-54; format: cell-based; conditions: Homo sapiens, HTB-54, 48 h; for activity at 10 µM / activity at 50 µM: read-out: Growth (%) HTB-54; for IC50: lung cancer cells, MTT, read-out: IC50 HTB-54
Experimental: (§1) The cell viability assay of each compound was carried out using the MTT assay. Each compound was dissolved in dimethyl sulfoxide (DMSO) at a concentration of 0.01 M. Serial dilutions were prepared with a non-supplemented culture medium. The effect of each compound on the cell viability was determined at two different concentrations (10 and 50 µM) in MCF-7, HTB-54, and HT-29 cells. In addition, the selected compounds were tested at six different concentrations between 0.1–100 µM in MCF-7, T47D, H1299, HTB-54, and 184B5 cells.
(§2) Briefly, 1 × 10^4 tumor cells/well or 2 × 10^4 non-tumorigenic cells/well were grown in 96-well plates for 12 h. Then, these cells were incubated with either DMSO (control) or a different concentration of each of the tested compounds for 48 h. Three hours before the termination point, 20 µL of MTT were added to measure the cellular viability. The resultant formazan crystals were dissolved in 50 µL of DMSO, and the absorbance was measured at 570 and 630 nm. The results are expressed as IC50, the half maximal inhibitory concentration. This value was calculated using OriginPro 8.5.1. software (OriginLab, Northampton, MA, USA) by nonlinear curve fitting. Furthermore, the selectivity index (SI) was calculated as the ratio of the IC50 values determined for the non-malignant and the tumor cells (IC50 (184B5)/IC50 (MCF-7). The data were obtained from at least three independent experiments performed in quadruplicates.

[2] = tested on: MCF-7 cells; assay: MTT cell viability assay, MCF-7; format: cell-based, human; conditions: for activity at 10 µM / activity at 50 µM / IC50: Homo sapiens, MCF7; for activity at 10 µM / activity at 50 µM / reduction of cell growth / IC50: 48 h; for activity at 10 µM / activity at 50 µM: read-out: Growth (%) MCF-7; for reduction of cell growth: in at least one of the cell lines (MCF-7, HT-29, HTB-54); for SI (selectivity index): IC50 (184B5)/IC50 (MCF-7)
Experimental: as §1, §2

[3] = DPPH radical scavenging assay; conditions: for DPPH radical scavenging: 0.003 mg/mL
Experimental: DPPH assay was performed as described by Svinyarov. Briefly, each compound was initially dissolved in absolute methanol at a concentration of 1 mg/mL, and serial dilutions were prepared. Ascorbic acid (Asc), a well-known and potent antioxidant, was used as a positive control. A methanolic solution (100 µM) of DPPH^• was prepared daily and […]. The absorbance measurements of this solution were needed in order to check the stability of the radical through the time of analysis. Then, 100 µL of DPPH in methanol were added to 100 µL of the compounds’ solutions, and the decolorization of the purple radical to the yellow reduced form was followed at 517 nm. Determinations were recorded at several time intervals. All of the measurements were carried out in triplicate. The results were expressed as the percentage of the radical scavenged, calculated using the following formula:(1) % DPPH radical scavenging = Acontrol−Asample/Acontrol × 100 where Acontrol refers to the absorbance of the negative control and Asample refers to the absorbance of the tested compounds. The results are expressed as percentage of DPPH radical scavenging ± standard deviation (SD).

[4] = tested on: HT-29 cells; assay: MTT cell viability assay, HT-29; format: cell-based; conditions: Homo sapiens, 48 h, read-out: Growth (%) HT-29
Experimental: as §1, §2

[5] = ABTS radical scavenging assay; conditions: for ABTS radical scavenging: 0.03 mg/mL, after the incubation time
Experimental: ABTS radical scavenging was assayed with a colorimetric test as well [59]. Briefly, ABTS was dissolved in deionized water at 1 mg/mL and oxidized to ABTS^+• with potassium persulfate (2.45 mM final concentration). This reaction mixture was kept overnight at room temperature in the dark. After radical generation, ABTS^+• was diluted with 50% ethanol until an absorbance of 0.70 ± 0.02 at 734 nm for measurements. The tested compounds were solved in absolute ethanol at a concentration of 1 mg/mL, and 20 µL of this solution were added to 180 µL of the diluted ABTS^+•. After 6 min of incubation, the absorbance at 734 nm was recorded using 50% ethanol as the blank. Trolox and Asc were used as the positive controls. All of the determinations were carried out in triplicate. The same time intervals as in the DPPH assay were also measured. The ability to scavenge ABTS^+• was calculated using the following formula:(2) % ABTS radical scavenging=Acontrol−Asample/Acontrol × 100 where Acontrol refers to the absorbance of the negative control and Asample refers to the absorbance of the tested compounds. The results are expressed as percentage of ABTS radical scavenging ± SD.

[6] = tested on: H1299 cells; assay: MTT cell viability assay, H1299; format: cell-based; conditions: Homo sapiens, NCI-H1299, lung cancer cells, 48 h
Experimental: as §1, §2

[7] = tested on: 184B5 cells; assay: MTT cell viability assay, non-malignant 184B5; format: cell-based; conditions: Homo sapiens, non-malignant breast cells, 48 h
Experimental: as §1, §2

[8] = tested on: T47D cells; assay: MTT cell viability assay, T47D; format: cell-based; conditions: Homo sapiens, breast cancer cells, 48 h
Experimental: as §1, §2

[9] = breast cancer cells, MTT, read-out: IC50 MCF-7

SMILES | activity at 10 µM [1] [%] | activity at 50 µM [1] [%] | activity at 10 µM ([2]; 10 μM) [%] | activity at 50 µM ([2]; 50 μM) [%] | DPPH radical scavenging [3] | activity at 10 µM [4] [%] | activity at 50 µM [4] [%] | ABTS radical scavenging activity compared with controls ([5]; 0.003 mg/mL) | ABTS radical scavenging [5] | IC50 [1] [µM] | IC50 [6] [µM] | reduction of cell growth ([2]; 10 μM) | reduction of cell growth ([2]; 50 μM) | IC50 [2, 9] [µM] | SI (selectivity index) [2] | IC50 [7] [µM] | IC50 [8] [µM] | IC50 ([2]; MCF-7 and T47D pooled, read-out: IC50 on breast cancer cells) [µM] | DPPH inhibition compared with Asc ([3]; 0.0006 mg/mL, all time-points)
CSc1ccc(Cl)c(C(=O)NC(=[Se])Nc2ccc(C)cc2)c1 [Compound 3b] | 45.1 | 22.2 | 64.2 | 24.5 | around 40% | 64.7 | 42.5 |  |  |  |  |  |  |  |  |  |  |  | 
O=C(NC(=[Se])Nc1ccc(Cl)cc1)c1ccccc1 [Compound 1e] | 82.3 | 57.2 | 74 | 13.9 | around 40% | 77.9 | 33.8 |  |  |  |  |  |  |  |  |  |  |  | 
O=C(NC(=[Se])Nc1ccccc1)c1ccccc1Cl [Compound 2a] | 91.3 | 65.6 | 93.6 | 30.5 | around 40% | 79.1 | 37.8 |  |  |  |  |  |  |  |  |  |  |  | 
COc1ccc(NC(=[Se])NC(=O)C=Cc2ccccc2)cc1 [Compound 8c] | 64.1 | 19.3 | 70.2 | 5.7 |  | 73.4 | 42.5 | potent radical scavenging activity similar to Trolox |  |  |  |  |  |  |  |  |  |  | 
Cc1ccc(NC(=[Se])NC(=O)C=Cc2ccccc2)cc1 [Compound 8b] | 85.9 | 72.8 | 95.5 | 82.3 |  | 95.3 | 76.9 |  | below 60% |  |  |  |  |  |  |  |  |  | 
O=C(NC(=[Se])Nc1ccccc1)c1ccco1 [Compound 6a] | 72.8 | 0.7 | 39.9 | 5 |  | 72.6 | 35.5 |  |  | 26.1 ± 2.3 | 30.2 ± 7.2 | at least 45% | more than 85% | 3.5 ± 0.6 | 14.7 | 52.2 ± 3.8 | 7.8 ± 1 |  | 
O=C(NC(=[Se])Nc1ccccc1)c1ccc2c(c1)OCO2 [Compound 10a] | 44 | 13.1 | 37.8 | 22.4 |  | 57.3 | 49.5 |  |  | > 100 | 11.2 ± 0.8 | at least 45% | more than 85% | 4.4 ± 1 | >22.9 | > 100 | 8 ± 1 | 4.2 to 8 | 
COc1ccc(NC(=[Se])NC(=O)c2ccccc2)cc1 [Compound 1c] | 64.4 | 57.2 | 67.8 | 13.9 | around 40% | 74.9 | 31.9 |  |  |  |  |  |  |  |  |  |  |  | greater inhibition compared with Asc
O=C(NC(=[Se])Nc1ccc(Cl)cc1)c1ccc2c(c1)OCO2 [Compound 10e] | 45.5 | 6.5 | 55.6 | 16.9 |  | 54.4 | 21.4 |  |  | 2.9 ± 3.2 | 48.6 ± 0.9 | at least 45% | more than 85% | 11.7 ± 1.5 | 6.2 | 73.1 ± 5.2 | 17.4 ± 3.1 |  | 
O=C(NC(=[Se])Nc1ccc(C(F)(F)F)cc1)c1cc2ccccc2s1 [Compound 9d] | 84.5 | 79.3 | 91.1 | 70.2 |  | 61.2 | 36 |  | below 60% |  |  |  |  |  |  |  |  |  | 
O=C(NC(=[Se])Nc1ccc(C(F)(F)F)cc1)c1ccc2c(c1)OCO2 [Compound 10d] | 79.6 | 5.1 | 60.6 | 8.4 |  | 66.5 | 13.9 |  |  | 23.4 ± 3.2 | 5.7 ± 0.1 |  |  | 7.9 ± 0.7 | >12.7 | > 100 | 11.8 ± 1.9 |  | 
O=C(NC(=[Se])Nc1ccc(Cl)cc1)c1cc2ccccc2s1 [Compound 9e] | 32.9 | 9 | 54.8 | 44.4 |  | 45.4 | 33.5 |  |  | > 100 | 8.7 ± 1.4 | at least 45% | more than 85% | 9.8 ± 0.9 | >10.2 | > 100 | 7.1 ± 0.6 |  | 
